According to ChEMBL document CHEMBL1130110 (J Med Chem, 1997):

Key:
[1] = target: Glucagon receptor (Rattus norvegicus) (UniProt P30082); experiment: Percent stimulation of cAMP production over basal.; type: functional; set-up: concentration or dose not given beside the values
[2] = target: Glucagon receptor (Rattus norvegicus) (UniProt P30082); experiment: Relative binding potency expressed as receptor binding IC50 for glucagon by receptor binding IC50 for compound

Chain of Glucagon receptor (Rattus norvegicus) (P30082 whole entry): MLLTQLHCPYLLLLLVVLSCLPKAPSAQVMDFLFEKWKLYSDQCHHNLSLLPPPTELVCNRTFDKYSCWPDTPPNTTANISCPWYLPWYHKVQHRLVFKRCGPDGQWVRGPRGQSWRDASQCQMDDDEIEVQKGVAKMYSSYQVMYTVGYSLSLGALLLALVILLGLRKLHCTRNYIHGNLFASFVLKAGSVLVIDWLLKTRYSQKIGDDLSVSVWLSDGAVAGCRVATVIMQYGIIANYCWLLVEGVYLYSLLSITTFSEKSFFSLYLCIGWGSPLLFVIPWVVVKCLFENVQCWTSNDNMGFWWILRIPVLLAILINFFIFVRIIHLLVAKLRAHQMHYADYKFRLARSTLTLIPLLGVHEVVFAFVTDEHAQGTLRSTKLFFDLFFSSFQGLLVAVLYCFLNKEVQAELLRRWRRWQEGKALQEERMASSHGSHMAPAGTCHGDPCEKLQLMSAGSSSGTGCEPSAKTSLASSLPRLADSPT

Activity [1] | Activity [2] | SMILES
6% | 3% | CSCC[C@@H](NC(=O)[C@@H](CC(C)C)NC(=O)[C@@H](Cc1c[nH]c2ccccc12)NC(=O)[C@@H](CCC(N)=O)NC(=O)[C@H](NC(=O)[C@@H](Cc1ccccc1)NC(=O)[C@@H](CC(=O)O)NC(=O)[C@@H](CCC(N)=O)NC(=O)[C@@H](C)NC(=O)[C@@H](CCCN=C(N)N)NC(=O)[C@@H](CCCN=C(N)N)NC(=O)[C@@H](CO)NC(=O)[C@@H](CC(=O)O)NC(=O)[C@@H](CC(C)C)NC(=O)[C@@H](Cc1ccc(O)cc1)NC(=O)[C@@H](CCCCN)NC(=O)[C@@H](CO)NC(=O)[C@@H](Cc1ccc(O)cc1)NC(=O)[C@@H](CCC(=O)O)NC(=O)[C@@H](CO)NC(=O)[C@H](NC(=O)[C@@H](Cc1ccccc1)NC(=O)[C@H](NC(=O)[C@@H](CCC(N)=O)NC(=O)[C@H](N)CO)[C@H](C)O)[C@H](C)O)C(C)C)C(=O)N[C@H](CC(N)=O)C(=O)N[C@@H](C(N)=O)[C@H](C)O
0% | < 0.1% | CSCC[C@@H](NC(=O)[C@@H](CC(C)C)NC(=O)[C@@H](Cc1c[nH]c2ccccc12)NC(=O)[C@@H](CCC(N)=O)NC(=O)[C@H](NC(=O)[C@@H](Cc1ccccc1)NC(=O)[C@@H](CC(=O)O)NC(=O)[C@@H](CCC(N)=O)NC(=O)[C@@H](C)NC(=O)[C@@H](CCCN=C(N)N)NC(=O)[C@@H](CCCN=C(N)N)NC(=O)[C@@H](CO)NC(=O)[C@@H](CC(=O)O)NC(=O)[C@@H](CC(C)C)NC(=O)[C@@H](Cc1ccc(O)cc1)NC(=O)[C@@H](CCCCN)NC(=O)[C@@H](CO)NC(=O)[C@@H](Cc1ccc(O)cc1)NC(=O)[C@@H](CCC(=O)O)NC(=O)[C@@H](CO)NC(=O)[C@H](NC(=O)[C@H](NC(=O)CNC(=O)[C@@H](CCC(N)=O)NC(=O)[C@H](N)CO)[C@H](C)O)[C@H](C)O)C(C)C)C(=O)N[C@H](CC(N)=O)C(=O)N[C@@H](C(=O)O)[C@H](C)O (stereo in doubt; 12)
0% | < 0.1% | CSCC[C@@H](NC(=O)[C@@H](CC(C)C)NC(=O)[C@@H](Cc1c[nH]c2ccccc12)NC(=O)[C@@H](CCC(N)=O)NC(=O)[C@H](NC(=O)[C@@H](Cc1ccccc1)NC(=O)[C@@H](CC(=O)O)NC(=O)[C@@H](CCC(N)=O)NC(=O)[C@@H](C)NC(=O)[C@@H](CCCN=C(N)N)NC(=O)[C@@H](CCCN=C(N)N)NC(=O)[C@@H](CO)NC(=O)[C@@H](CC(=O)O)NC(=O)[C@@H](CC(C)C)NC(=O)[C@@H](Cc1ccc(O)cc1)NC(=O)[C@@H](CCCCN)NC(=O)[C@@H](CO)NC(=O)[C@@H](Cc1ccc(O)cc1)NC(=O)[C@@H](CCC(=O)O)NC(=O)[C@@H](CO)NC(=O)[C@H](NC(=O)[C@@H](CC(=O)O)NC(=O)[C@H](NC(=O)CNC(=O)[C@@H](CCC(N)=O)NC(=O)[C@H](N)CO)[C@H](C)O)[C@H](C)O)C(C)C)C(=O)N[C@H](CC(N)=O)C(=O)N[C@@H](C(N)=O)[C@H](C)O
0% | 0.3% | CSCC[C@@H](NC(=O)[C@@H](CC(C)C)NC(=O)[C@@H](Cc1c[nH]c2ccccc12)NC(=O)[C@@H](CCC(N)=O)NC(=O)[C@H](NC(=O)[C@@H](Cc1ccccc1)NC(=O)[C@@H](CC(=O)O)NC(=O)[C@@H](CCC(N)=O)NC(=O)[C@@H](C)NC(=O)[C@@H](CCCN=C(N)N)NC(=O)[C@@H](CCCN=C(N)N)NC(=O)[C@@H](CO)NC(=O)[C@@H](CC(=O)O)NC(=O)[C@@H](CC(C)C)NC(=O)[C@@H](Cc1ccc(O)cc1)NC(=O)[C@@H](CCCCN)NC(=O)[C@@H](CO)NC(=O)[C@@H](Cc1ccc(O)cc1)NC(=O)[C@@H](CC(=O)O)NC(=O)[C@@H](CO)NC(=O)[C@H](NC(=O)[C@H](NC(=O)CNC(=O)[C@@H](CCC(N)=O)NC(=O)[C@@H](CO)NC(=O)[C@H](N)Cc1c[nH]cn1)[C@H](C)O)[C@H](C)O)C(C)C)C(=O)N[C@H](CC(N)=O)C(=O)N[C@@H](C(N)=O)[C@H](C)O
0% | 1% | CSCC[C@@H](NC(=O)[C@@H](CC(C)C)NC(=O)[C@@H](Cc1c[nH]c2ccccc12)NC(=O)[C@@H](CCC(N)=O)NC(=O)[C@H](NC(=O)[C@@H](Cc1ccccc1)NC(=O)[C@@H](CC(=O)O)NC(=O)[C@@H](CCC(N)=O)NC(=O)[C@@H](C)NC(=O)[C@@H](CCCN=C(N)N)NC(=O)[C@@H](CCCN=C(N)N)NC(=O)[C@@H](CO)NC(=O)[C@@H](CC(=O)O)NC(=O)[C@@H](CC(C)C)NC(=O)[C@@H](Cc1ccc(O)cc1)NC(=O)[C@@H](CCCCN)NC(=O)[C@@H](CO)NC(=O)[C@@H](Cc1ccc(O)cc1)NC(=O)[C@@H](CC(=O)O)NC(=O)[C@@H](CO)NC(=O)[C@H](NC(=O)[C@H](NC(=O)CNC(=O)[C@@H](CCC(N)=O)NC(=O)[C@H](N)CO)[C@H](C)O)[C@H](C)O)C(C)C)C(=O)N[C@H](CC(N)=O)C(=O)N[C@@H](C(=O)O)[C@H](C)O
0% | 3.1% | CSCC[C@@H](NC(=O)[C@@H](CC(C)C)NC(=O)[C@@H](Cc1c[nH]c2ccccc12)NC(=O)[C@@H](CCC(N)=O)NC(=O)[C@H](NC(=O)[C@@H](Cc1ccccc1)NC(=O)[C@@H](CC(=O)O)NC(=O)[C@@H](CCC(N)=O)NC(=O)[C@@H](C)NC(=O)[C@@H](CCCN=C(N)N)NC(=O)[C@@H](CCCN=C(N)N)NC(=O)[C@@H](CO)NC(=O)[C@@H](CC(=O)O)NC(=O)[C@@H](CC(C)C)NC(=O)[C@@H](Cc1ccc(O)cc1)NC(=O)[C@@H](CCCCN)NC(=O)[C@@H](CO)NC(=O)[C@@H](Cc1ccc(O)cc1)NC(=O)[C@@H](CCC(=O)O)NC(=O)[C@@H](CO)NC(=O)[C@H](NC(=O)[C@H](NC(=O)CNC(=O)[C@@H](CCC(N)=O)NC(=O)[C@H](N)CO)[C@H](C)O)[C@H](C)O)C(C)C)C(=O)N[C@H](CC(N)=O)C(=O)N[C@@H](C(N)=O)[C@H](C)O
0% | < 0.1% | CSCC[C@@H](NC(=O)[C@@H](CC(C)C)NC(=O)[C@@H](Cc1c[nH]c2ccccc12)NC(=O)[C@@H](CCC(N)=O)NC(=O)[C@H](NC(=O)[C@@H](Cc1ccccc1)NC(=O)[C@@H](CC(=O)O)NC(=O)[C@@H](CCC(N)=O)NC(=O)[C@@H](C)NC(=O)[C@@H](CCCN=C(N)N)NC(=O)[C@@H](CCCN=C(N)N)NC(=O)[C@@H](CO)NC(=O)[C@@H](CC(=O)O)NC(=O)[C@@H](CC(C)C)NC(=O)[C@@H](Cc1ccc(O)cc1)NC(=O)[C@@H](CCCCN)NC(=O)[C@@H](CO)NC(=O)[C@@H](Cc1ccc(O)cc1)NC(=O)[C@@H](CCC(=O)O)NC(=O)[C@@H](CO)NC(=O)[C@H](NC(=O)[C@H](NC(=O)CNC(=O)[C@@H](CCC(N)=O)NC(=O)[C@H](N)CO)[C@H](C)O)[C@H](C)O)C(C)C)C(=O)N[C@H](CC(N)=O)C(=O)N[C@@H](C(=O)O)[C@H](C)O (stereo in doubt; 13)
0% | 1.2% | CSCC[C@@H](NC(=O)[C@@H](CC(C)C)NC(=O)[C@@H](Cc1c[nH]c2ccccc12)NC(=O)[C@@H](CCC(N)=O)NC(=O)[C@H](NC(=O)[C@@H](Cc1ccccc1)NC(=O)[C@@H](CC(=O)O)NC(=O)[C@@H](CCC(N)=O)NC(=O)[C@@H](C)NC(=O)[C@@H](CCCN=C(N)N)NC(=O)[C@@H](CCCN=C(N)N)NC(=O)[C@@H](CO)NC(=O)[C@@H](CC(=O)O)NC(=O)[C@@H](CC(C)C)NC(=O)[C@@H](Cc1ccc(O)cc1)NC(=O)[C@@H](CCCCN)NC(=O)[C@@H](CO)NC(=O)[C@@H](Cc1ccc(O)cc1)NC(=O)[C@@H](CCC(=O)O)NC(=O)[C@@H](CO)NC(=O)[C@H](NC(=O)[C@@H](C)NC(=O)[C@H](NC(=O)CNC(=O)[C@@H](CCC(N)=O)NC(=O)[C@H](N)CO)[C@H](C)O)[C@H](C)O)C(C)C)C(=O)N[C@H](CC(N)=O)C(=O)N[C@@H](C(N)=O)[C@H](C)O
0% | 3.8% | CSCC[C@@H](NC(=O)[C@@H](CC(C)C)NC(=O)[C@@H](Cc1c[nH]c2ccccc12)NC(=O)[C@@H](CCC(N)=O)NC(=O)[C@H](NC(=O)[C@@H](Cc1ccccc1)NC(=O)[C@@H](CC(=O)O)NC(=O)[C@@H](CCC(N)=O)NC(=O)[C@@H](C)NC(=O)[C@@H](CCCN=C(N)N)NC(=O)[C@@H](CCCN=C(N)N)NC(=O)[C@@H](CO)NC(=O)[C@@H](CC(=O)O)NC(=O)[C@@H](CC(C)C)NC(=O)[C@@H](Cc1ccc(O)cc1)NC(=O)[C@@H](CCCCN)NC(=O)[C@@H](CO)NC(=O)[C@@H](Cc1ccc(O)cc1)NC(=O)[C@@H](CCC(=O)O)NC(=O)[C@@H](CO)NC(=O)[C@H](NC(=O)[C@@H](Cc1ccc(O)cc1)NC(=O)[C@H](NC(=O)CNC(=O)[C@@H](CCC(N)=O)NC(=O)[C@H](N)CO)[C@H](C)O)[C@H](C)O)C(C)C)C(=O)N[C@H](CC(N)=O)C(=O)N[C@@H](C(N)=O)[C@H](C)O
0% | 1.3% | CSCC[C@@H](NC(=O)[C@@H](CC(C)C)NC(=O)[C@@H](Cc1c[nH]c2ccccc12)NC(=O)[C@@H](CCC(N)=O)NC(=O)[C@H](NC(=O)[C@@H](Cc1ccccc1)NC(=O)[C@@H](CC(=O)O)NC(=O)[C@@H](CCC(N)=O)NC(=O)[C@@H](C)NC(=O)[C@@H](CCCN=C(N)N)NC(=O)[C@@H](CCCN=C(N)N)NC(=O)[C@@H](CO)NC(=O)[C@@H](CC(=O)O)NC(=O)[C@@H](CC(C)C)NC(=O)[C@@H](Cc1ccc(O)cc1)NC(=O)[C@@H](CCCCN)NC(=O)[C@@H](CO)NC(=O)[C@@H](Cc1ccc(O)cc1)NC(=O)[C@@H](CCC(=O)O)NC(=O)[C@@H](CO)NC(=O)[C@H](NC(=O)[C@H](NC(=O)CNC(=O)[C@@H](CCC(N)=O)NC(=O)[C@@H](CO)NC(=O)[C@H](N)Cc1c[nH]cn1)[C@H](C)O)[C@H](C)O)C(C)C)C(=O)N[C@H](CC(N)=O)C(=O)N[C@@H](C(N)=O)[C@H](C)O
0% | 7.9% | CSCC[C@@H](NC(=O)[C@@H](CC(C)C)NC(=O)[C@@H](Cc1c[nH]c2ccccc12)NC(=O)[C@@H](CCC(N)=O)NC(=O)[C@H](NC(=O)[C@@H](Cc1ccccc1)NC(=O)[C@@H](CC(=O)O)NC(=O)[C@@H](CCC(N)=O)NC(=O)[C@@H](C)NC(=O)[C@@H](CCCN=C(N)N)NC(=O)[C@@H](CCCN=C(N)N)NC(=O)[C@@H](CO)NC(=O)[C@@H](CC(=O)O)NC(=O)[C@@H](CC(C)C)NC(=O)[C@@H](Cc1ccc(O)cc1)NC(=O)[C@@H](CCCCN)NC(=O)[C@@H](CO)NC(=O)[C@@H](Cc1ccc(O)cc1)NC(=O)[C@@H](CCC(=O)O)NC(=O)[C@@H](CO)NC(=O)[C@H](NC(=O)[C@@H](Cc1c[nH]c2ccccc12)NC(=O)[C@H](NC(=O)CNC(=O)[C@@H](CCC(N)=O)NC(=O)[C@H](N)CO)[C@H](C)O)[C@H](C)O)C(C)C)C(=O)N[C@H](CC(N)=O)C(=O)N[C@@H](C(N)=O)[C@H](C)O
